Literature values in patent publication US20040043030A1, “Polymeric delivery systems” (Immunomedics, Inc., priority 2001, published 2004).

Legend:
tumor cells = settings: relative to doxorubicin
[1] = target: T1, human beta-D-glucuronidase (Homo sapiens, UniProt P08236); settings: Arcamone, Cancer Res., 45:5995, 1985
T1 sequence (P08236 23-651): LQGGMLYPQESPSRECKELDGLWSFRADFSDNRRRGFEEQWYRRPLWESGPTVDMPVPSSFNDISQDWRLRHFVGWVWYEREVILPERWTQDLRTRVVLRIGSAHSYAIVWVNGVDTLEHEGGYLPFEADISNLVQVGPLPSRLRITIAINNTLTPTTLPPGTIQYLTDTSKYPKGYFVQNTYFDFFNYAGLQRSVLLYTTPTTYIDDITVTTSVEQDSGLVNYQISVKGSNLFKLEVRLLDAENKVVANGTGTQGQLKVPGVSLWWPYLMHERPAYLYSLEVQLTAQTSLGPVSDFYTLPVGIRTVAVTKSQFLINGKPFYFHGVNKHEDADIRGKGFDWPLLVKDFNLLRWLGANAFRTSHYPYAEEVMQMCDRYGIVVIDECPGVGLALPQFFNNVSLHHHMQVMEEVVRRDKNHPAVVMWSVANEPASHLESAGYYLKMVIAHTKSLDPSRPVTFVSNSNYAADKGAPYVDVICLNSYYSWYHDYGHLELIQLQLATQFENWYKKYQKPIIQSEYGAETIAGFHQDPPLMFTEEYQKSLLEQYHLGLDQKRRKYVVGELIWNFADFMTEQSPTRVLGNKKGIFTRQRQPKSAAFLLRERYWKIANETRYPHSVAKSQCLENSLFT

Structure (SMILES) | more toxic to tumor cells than doxorubicin itself (tumor cells) | substrate for human beta-D-glucuronidase [1]
COc1cccc2c1C(=O)c1c(O)c3c(c(O)c1C2=O)C[C@@](O)(C(=O)CO)C[C@@H]3O[C@H]1C[C@H](N2C=CCC2)[C@H](O)[C@H](C)O1 [Example 2-PDOX, 2-pyrrolinodoxorubicin] | 100-1000 | 
COc1cccc2c1C(=O)c1c(O)c3c(c(O)c1C2=O)C[C@@](O)(C(=O)CO)C[C@@H]3O[C@H]1C[C@H](N)[C@@H](O)[C@H](C)O1 [epirubicin] |  | substrate
